Results on 17 molecules are retold here after article PMC9781101, “A High-Throughput Fluorescence Polarization-Based Assay for the SH2 Domain of STAT4” (Methods and Protocols, 2022).

The subject of test [1] is STAT4 R598A. The settings on record: FP, Figure 1b, compared with STAT4 wild-type.
Description: Binding of fluorescent-labelled peptides to the truncated STAT4 protein was analysed using an Infinite F500 plate reader (Tecan) as previously published for STAT5b [12]. Unless otherwise stated, FP assays were performed in a buffer consisting of 10 mM Tris/HCl, 50 mM NaCl, 1 mM EDTA, 0.1% (v/v) NP-40 substitute, 2% (v/v) DMSO and 1 mM DTT at a pH of 8.0. All steps were carried out at room temperature. For the binding assays shown in Figure 1, Figure 2 and Figure 3, the prediluted STAT4 protein was incubated for 1 h before addition of the fluorophore-labelled peptide, to mimic the incubation period with test compounds. For the inhibition assay shown in Figure 4, STAT4 was incubated with unlabelled peptide for 1 h before addition of the fluorophore-labelled peptide (final STAT4 concentration: 33 nM). Fluorescence polarization was read 1 h after addition of the labelled peptide, in non-treated black 384-well microplates (Corning). Fluorescent-labelled peptides were used at a final concentration of 10 nM unless otherwise stated. […] Fluorescence polarization values were normalized by subtracting the FP values of the wells containing the fluorophore-labelled peptides only. […] IC50 values were converted to inhibition constants (Ki) using the published equation [20], with average values calculated as for IC50 values.
The target in test [2] is T1, STAT4 SH2 domain (human STAT4 amino acids 136 to 705) (Homo sapiens, UniProt Q14765).
T1 sequence (Q14765 136-705): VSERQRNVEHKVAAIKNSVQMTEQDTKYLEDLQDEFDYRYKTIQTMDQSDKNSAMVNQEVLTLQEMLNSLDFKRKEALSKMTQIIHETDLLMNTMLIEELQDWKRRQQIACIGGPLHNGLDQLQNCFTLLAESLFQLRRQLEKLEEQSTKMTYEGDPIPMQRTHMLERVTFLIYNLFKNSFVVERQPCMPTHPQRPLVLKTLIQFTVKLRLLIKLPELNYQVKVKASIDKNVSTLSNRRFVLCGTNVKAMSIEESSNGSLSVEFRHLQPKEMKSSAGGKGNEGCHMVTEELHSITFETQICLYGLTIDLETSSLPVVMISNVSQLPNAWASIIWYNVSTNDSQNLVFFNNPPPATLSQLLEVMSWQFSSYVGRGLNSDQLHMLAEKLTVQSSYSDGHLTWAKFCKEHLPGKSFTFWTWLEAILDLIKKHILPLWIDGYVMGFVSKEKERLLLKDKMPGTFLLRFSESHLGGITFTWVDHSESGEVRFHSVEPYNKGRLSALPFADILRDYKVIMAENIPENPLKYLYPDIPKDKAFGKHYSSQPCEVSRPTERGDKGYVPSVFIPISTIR
Kind of test: Fluorescence polarization direct binding assay, labelled phosphopeptides to truncated STAT4. The settings on record: for fold lower affinity for STAT4 than 5-CF-GpYLPQNID: ratio of Kd values. (Polarisation of emitted light reports the rotation of a fluorescent probe.)
Description: (§1) Binding of fluorescent-labelled peptides to the truncated STAT4 protein was analysed using an Infinite F500 plate reader (Tecan) as previously published for STAT5b [12]. Unless otherwise stated, FP assays were performed in a buffer consisting of 10 mM Tris/HCl, 50 mM NaCl, 1 mM EDTA, 0.1% (v/v) NP-40 substitute, 2% (v/v) DMSO and 1 mM DTT at a pH of 8.0. All steps were carried out at room temperature. For the binding assays shown in Figure 1, Figure 2 and Figure 3, the prediluted STAT4 protein was incubated for 1 h before addition of the fluorophore-labelled peptide, to mimic the incubation period with test compounds. For the inhibition assay shown in Figure 4, STAT4 was incubated with unlabelled peptide for 1 h before addition of the fluorophore-labelled peptide (final STAT4 concentration: 33 nM). Fluorescence polarization was read 1 h after addition of the labelled peptide, in non-treated black 384-well microplates (Corning). Fluorescent-labelled peptides were used at a final concentration of 10 nM unless otherwise stated. Binding and inhibition curves were plotted using OriginPro 2019 software (OriginLab). Fluorescence polarization values were normalized by subtracting the FP values of the wells containing the fluorophore-labelled peptides only. […] IC50 values from three independent experiments were used to calculate an average value and the corresponding standard deviation. IC50 values were converted to inhibition constants (Ki) using the published equation [20], with average values calculated as for IC50 values.

Test [3] concerns the target STAT3 (amino acids 127 to 722) (Mus musculus, UniProt P42227). Kind of test: Fluorescence polarization direct binding assay, STAT3. Set-up: species or system murine.
Test [4] has as its target T2, STAT6 (amino acids 110 to 651) (Homo sapiens, UniProt P42226).
T2 sequence (P42226 110-651): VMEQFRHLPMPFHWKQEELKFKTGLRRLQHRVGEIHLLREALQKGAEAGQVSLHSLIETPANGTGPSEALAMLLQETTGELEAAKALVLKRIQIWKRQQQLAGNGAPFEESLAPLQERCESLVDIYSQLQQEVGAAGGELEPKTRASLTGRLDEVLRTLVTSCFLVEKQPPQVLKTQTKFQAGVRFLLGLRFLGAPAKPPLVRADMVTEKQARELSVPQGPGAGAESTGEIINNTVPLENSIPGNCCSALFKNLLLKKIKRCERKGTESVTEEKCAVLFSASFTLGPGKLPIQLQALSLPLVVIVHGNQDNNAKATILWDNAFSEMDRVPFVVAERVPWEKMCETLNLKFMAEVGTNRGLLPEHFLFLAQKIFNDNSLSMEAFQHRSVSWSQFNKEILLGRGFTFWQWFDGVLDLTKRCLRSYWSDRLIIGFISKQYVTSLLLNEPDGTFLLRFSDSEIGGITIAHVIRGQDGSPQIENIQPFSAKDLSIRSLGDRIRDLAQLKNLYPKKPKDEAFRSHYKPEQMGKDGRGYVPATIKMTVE
Kind of test: Fluorescence polarization direct binding assay, STAT6. To be noted: FP, 10 nM labelled peptide; Figure S1.

In test [5] the target is T1, STAT4 SH2 domain (human STAT4 amino acids 136 to 705). Kind of test: Fluorescence polarization competitive inhibition of binding between 5-CF-GpYLPQNID and STAT4. The settings on record: for IC50: SD; for inhibition: 33 nM STAT4, 10 nM probe.
Description: as §1
The subject of test [6] is STAT4. The settings on record: cited from earlier work; for IC50: read-out: IC50 against STAT4 in an ELISA. In general terms: An ELISA detects its analyte on a solid surface through an enzyme-linked reagent.
Test [7] addresses EPO receptor peptide (Homo sapiens, UniProt P19235, phosphotyrosine, 5-carboxyfluorescein). The test is described as follows: fluorescence polarization.
Test [8] concerns the target T3, IFN-γ receptor peptide (Homo sapiens, UniProt P15260, also: 5-carboxyfluorescein, site not given here).
T3 chain: G[pY]DKPHVL
The test is described as follows: fluorescence polarization.

The target of test [9] is gp130 peptide (Homo sapiens, UniProt P40189, phosphotyrosine, 5-carboxyfluorescein). Kind of test: fluorescence polarization.

Where two headings read alike, the source gives them in different places. Non-standard residues stand in square brackets, D forms with d. Residues, ends and D or L forms follow the SMILES beside them. No end group written: not given here. *: point of attachment. 5FAM = O=C1OC2(c3ccc(O)cc3Oc3cc(O)ccc32)c2ccc(C(=O)*)cc21; pY = N[C@@H](Cc1ccc(OP(=O)(O)O)cc1)C(=O)O

STAT3 (amino acids 127 to 722), sequence (P42227 127-722): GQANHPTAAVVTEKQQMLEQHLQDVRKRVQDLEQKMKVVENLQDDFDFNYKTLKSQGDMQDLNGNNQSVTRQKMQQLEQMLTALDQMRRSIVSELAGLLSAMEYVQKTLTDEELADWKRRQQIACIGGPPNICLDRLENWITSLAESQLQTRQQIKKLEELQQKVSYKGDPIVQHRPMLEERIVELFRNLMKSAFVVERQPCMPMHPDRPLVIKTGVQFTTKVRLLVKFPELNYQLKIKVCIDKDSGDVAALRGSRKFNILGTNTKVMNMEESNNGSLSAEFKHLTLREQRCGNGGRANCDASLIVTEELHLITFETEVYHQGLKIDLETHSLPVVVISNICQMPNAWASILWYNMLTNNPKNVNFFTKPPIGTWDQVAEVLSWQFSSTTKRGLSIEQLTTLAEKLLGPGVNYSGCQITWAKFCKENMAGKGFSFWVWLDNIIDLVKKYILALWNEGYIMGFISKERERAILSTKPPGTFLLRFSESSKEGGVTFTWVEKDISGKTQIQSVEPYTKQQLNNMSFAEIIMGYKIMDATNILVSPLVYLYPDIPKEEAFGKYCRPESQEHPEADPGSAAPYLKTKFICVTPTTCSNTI

In general, Kd refers to the concentration at which binding is half-saturated. A lower Kd goes with higher affinity. For the molecule `CC[C@H](C)[C@H](NC(=O)[C@H](CC(N)=O)NC(=O)[C@H](CCC(N)=O)NC(=O)[C@@H]1CCCN1C(=O)[C@H](CC(C)C)NC(=O)[C@H](Cc1ccc(OP(=O)(O)O)cc1)NC(=O)CNC(=O)c1ccc2c(c1)C(=O)OC21c2ccc(O)cc2Oc2cc(O)ccc21)C(=O)N[C@@H](CC(=O)O)C(=O)O` [5-CF-GpYLPQNID] (5FAM-G[pY]LPQNID-OH), in test [1], the “binding to STAT4 R598A (in words)” value was “almost completely abolished”. The “reduction in affinity for STAT4 by 8 h” value in [2] (8 h after addition of labelled probe) is reported as “no more than 35%”. Further, the Kd was 34 ± 4 nM in test [2] (SD); 131 ± 6 nM in test [3] (FP, 10 nM labelled peptide, Figure S1, mean ± SD of 3 independent experiments, SD); over 2560 nM in test [4]. In addition, the “weaker affinity for STAT3 than for STAT4” value in test [3] (ratio of Kd values STAT3 vs STAT4) was “fourfold”.
Molecule `CC(C)C[C@H](NC(=O)[C@H](Cc1ccc(OP(=O)(O)O)cc1)NC(=O)CNC(=O)c1ccc2c(c1)C(=O)OC21c2ccc(O)cc2Oc2cc(O)ccc21)C(=O)N1CCC[C@H]1C(=O)N[C@@H](CCC(N)=O)C(=O)N[C@H](C(=O)N[C@H](C(N)=O)C(C)C)[C@@H](C)O` [5-CF-GpYLPQTV-NH2] (5FAM-G[pY]LPQTV-NH2) gave a Kd in test [2] (SD) of 82 ± 2 nM. Moreover, in test [2] (10 nM labelled peptide), the “fold lower affinity for STAT4 than 5-CF-GpYLPQNID” value (from here on “fold lower affinity”) worked out at 2.4 fold.
`CC[C@H](C)[C@H](NC(=O)[C@H](CCC(=O)O)NC(=O)[C@H](CCC(=O)O)NC(=O)[C@H](Cc1ccc(OP(=O)(O)O)cc1)NC(=O)CNC(=O)c1ccc2c(c1)C(=O)OC21c2ccc(O)cc2Oc2cc(O)ccc21)C(=O)N1CCC[C@H]1C(=O)O` [5-CF-GpYEEIP] (5FAM-G[pY]EEIP-OH) registered a Kd in test [2] of over 2560 nM.
The molecule `CC[C@H](C)[C@H](NC(=O)[C@H](CC(N)=O)NC(=O)[C@H](CO)NC(=O)[C@@H]1CCCN1C(=O)[C@H](CC(C)C)NC(=O)[C@H](Cc1ccc(OP(=O)(O)O)cc1)NC(=O)CNC(=O)c1ccc2c(c1)C(=O)OC21c2ccc(O)cc2Oc2cc(O)ccc21)C(=O)N[C@@H](CC(=O)O)C(=O)O` [5-CF-GpYLPSNID] (5FAM-G[pY]LPSNID-OH) displayed a Kd in test [2] (SD) of 160 ± 6 nM.
Take 5-CF-GPMQSpTPLNG: the “binding to STAT4 (in words)” value in [2] (FP, 10 nM labelled peptide) is “did not bind”.
Usually IC50 stands for the concentration that gives 50% inhibition. As to `CC(=O)N[C@@H](Cc1ccc(OP(=O)(O)O)cc1)C(=O)N[C@@H](CC(C)C)C(=O)N1CCC[C@H]1C(=O)N[C@@H](CCC(N)=O)C(=O)N[C@H](C(=O)N[C@H](C(N)=O)C(C)C)[C@@H](C)O` [Ac-pYLPQTV-NH2], the IC50 in [5] turned out to be 1270 ± 100 nM. Further, the “fold less active than Ac-GpYLPQNID” value in test [5] (ratio of IC50 values) turned out to be 2.6 fold.
The inhibition is the share of the control response that was lost under treatment. With GpYEEIP, the inhibition in test [5] (read-out: Inhibition at 40 µM, 40 µM unlabelled peptide (highest concentration tested)) came out at 37 ± 4%.
`CC[C@H](C)[C@H](NC(=O)[C@H](CC(N)=O)NC(=O)[C@H](CCC(N)=O)NC(=O)[C@@H]1CCCN1C(=O)[C@H](CC(C)C)NC(=O)[C@H](Cc1ccc(OP(=O)(O)O)cc1)NC(=O)CNC(C)=O)C(=O)N[C@@H](CC(=O)O)C(=O)O` [Ac-GpYLPQNID] (Ac-G[pY]LPQNID-OH) yielded an IC50 in test [5] of 490 ± 40 nM. In addition, the “extrapolated maximum inhibition at infinite peptide concentrations” value in test [5] (extrapolated from inhibition curve) is on record as 98.4 ± 0.9%. Besides, the inhibition at 40 µM in [5] (read-out: Inhibition at 40 µM) came to 96%.
SHEGpYLPWNID: in test [6], the “fold less potent against STAT4 than SHEGpYLPQNID in an ELISA” value is recorded as 2-3 fold and the IC50 was 930 nM.
`CC(C)C[C@H](NC(=O)[C@@H](NC(=O)[C@H](Cc1c[nH]cn1)NC(=O)[C@@H]1CCCN1C(=O)[C@H](CCCCN)NC(=O)[C@H](CC(=O)O)NC(=O)[C@H](Cc1ccc(OP(=O)(O)O)cc1)NC(=O)CNC(=O)c1ccc2c(c1)C(=O)OC21c2ccc(O)cc2Oc2cc(O)ccc21)C(C)C)C(=O)O` [5-CF-GpYDKPHVL] (5FAM-G[pY]DKPHVL-OH): the Kd in test [2] (SD) came out at 1230 ± 284 nM.
The molecule `CC(C)C[C@H](NC(=O)[C@H](Cc1c[nH]c2ccccc12)NC(=O)[C@H](CCCCN)NC(=O)[C@H](CC(=O)O)NC(=O)[C@H](CC(C)C)NC(=O)[C@@H](NC(=O)[C@H](CC(C)C)NC(=O)[C@H](Cc1ccc(OP(=O)(O)O)cc1)NC(=O)[C@@H](NC(=O)[C@@H](N)CC(=O)O)[C@@H](C)O)C(C)C)C(=O)O` [DTpYLVLDKWL] (H-DT[pY]LVLDKWL-OH) gave an IC50 in test [5] of 4170 ± 130 nM.
The molecule `CC[C@H](C)[C@H](NC(=O)[C@H](CC(C)C)NC(=O)[C@H](CC(=O)O)NC(=O)[C@H](CCC(N)=O)NC(=O)[C@H](Cc1c[nH]c2ccccc12)NC(=O)[C@@H]1CCCN1C(=O)[C@@H](NC(=O)[C@H](Cc1ccc(OP(=O)(O)O)cc1)NC(=O)CNC(=O)c1ccc2c(c1)C(=O)OC21c2ccc(O)cc2Oc2cc(O)ccc21)C(C)C)C(=O)O` [5-CF-GpYVPWQDLI] (5FAM-G[pY]VPWQDLI-OH) gave a Kd in test [2] (SD) of 93 ± 8 nM. For the same molecule, the “fold lower affinity” value in [2] (10 nM labelled peptide) was 3 fold.
As for MAGPMQSpTPLNGAKK, in test [5] (read-out: Inhibition at 40 µM, 40 µM unlabelled peptide, n = 2), the inhibition was found to be 2 ± 2%. The “inhibitory effect on STAT4 (in words)” value in test [5] (up to 40 µM) is listed as “no detectable inhibitory effect”.
In test [2] (SD), `CC(C)C[C@H](NC(=O)[C@H](Cc1ccc(OP(=O)(O)O)cc1)NC(=O)CNC(=O)c1ccc2c(c1)C(=O)OC21c2ccc(O)cc2Oc2cc(O)ccc21)C(=O)N[C@H](C(=O)N[C@@H](CC(C)C)C(=O)N[C@@H](CC(=O)O)C(=O)N[C@@H](CCCCN)C(=O)N[C@@H](Cc1c[nH]c2ccccc12)C(=O)O)C(C)C` [5-CF-GpYLVLDKW] gave a Kd of 267 ± 6 nM. Moreover, in test [2] (10 nM labelled peptide), the “fold lower affinity” value is on record as “approximately 8 fold”.
On to SHEGpYLPQNID, for which the IC50 in [6] is 390 nM.
Molecule `CC(C)C[C@H](NC(=O)[C@@H](NC(=O)[C@H](Cc1c[nH]cn1)NC(=O)[C@@H]1CCCN1C(=O)[C@H](CCCCN)NC(=O)[C@H](CC(=O)O)NC(=O)[C@H](Cc1ccc(OP(=O)(O)O)cc1)NC(=O)CN)C(C)C)C(=O)O` [GpYDKPHVL] (H-G[pY]DKPHVL-OH) returned an IC50 in [5] of 31400 ± 6700 nM.

B1: STAT4 SH2 (protein)
chain: LPLWIDGYVMGFVSKEKERLLLKDKMPGTFLLRFSESHLGGITFTWVDHSESGEVRFHSVEPYNKGRLSALPFADILRDYKVIMAENIPENPLKYLYPDIPK
As for B1, the Kd in [7] is 267 nM; in test [8], 1230 nM; in test [9], 82 nM.
